# Results taken from patent US10071989B2, “Substituted cinnamamide derivative, preparation method and use thereof” (TASLY PHARMACEUTICAL GROUP CO., LTD., priority 2011, dated 2018).
# Entries after “also recorded” stand apart in the source; their conditions may differ. Read-outs that look alike come from different tables or passages of the source. Marks after values point to notes of the source that are not given here.
# Tests used:
# [1] = test system: C57BL/6 mice; assay: Number of autonomic activity of mice (YLS-1A autonomic activity recorder); format: in vivo; details: 10 mg/kg intragastric once daily, counted 30 min after administration at 6th day
# Method: 110 mice were randomly selected to observe the number of their autonomic activity. The mice was placed into the YLS-1A multi-functional mice autonomic activity recorder, and after 1 min of adaption, the mice's activity was counted within a time period from the end of 1st min to 4th min. 96 mice with the number of autonomic activity between 70˜140 were screened out, divided randomly into 8 groups, and intragastrically administrated with the drug compounds at a dose listed in Table 1, one time daily for 7 days consecutively. The solvent control group was administrated with 2% Tween-80 aqueous solution in the same volume. All mice were placed into the autonomic activity recorder 30 min after administration at 6th day. After 1 min of adaption, the mice's activity was counted within a time period from the end of 1st min to 4th min.
# 130 mice were randomly selected to observe the number of their autonomic activity. The method was the same with that of Experiment 1. 108 mice with the number of autonomic activity between 70˜140 were screened out, divided randomly into 9 groups, and intragastrically administrated with the drug compounds at a dose listed in Table 2, one time daily for 7 days consecutively. The solvent control group was administrated with 2% Tween-80 aqueous solution in the same volume. 30 min after administration at 6th day, the number of the autonomic activity of each mouse was observed. 30 min after administration at 7th day, the immobility time in tail suspension test was observed. The method was the same with that in Experiment 1.
# [2] = test system: C57BL/6 mice; assay: Depression model test of anti-blepharoptosis caused by reserpine (akinesia, blepharoptosis, shell temperature); format: in vivo; details: for Blepharoptosis, “out-of-circle” ratio and shell temperature after reserpine (effect in words): compared with the solvent control group; for “out-of-circle” ratio after reserpine compared with I-1 (in words): compared with I-1, p<0.05; for Degree of eye-closure: score 0-4 one hour after reserpine; for responders at 10 mg/kg: Mus musculus, po, 1 h, one hour after reserpine, 7.5 cm circle, 15-second observation, read-out: “out-of-circle” ratio
# Method: 120 male C57BL/6 mice were randomly selected to observe the number of their autonomic activity. The mice was placed into the YLS-1A multi-functional mice autonomic activity recorder, and after 1 min of adaption, the activity of the mice was counted within a time period from the end of 1st min to 4th min. 96 mice with the number of autonomic activity between 70˜140 were screened out, divided randomly into 8 groups, and intragastrically administrated with the drug compounds at a dose listed in Table 3, one time daily for 7 days consecutively. The solvent control group was administrated with 2% Tween-80 aqueous solution in the same volume. Except the normal control group, 30 min after the last administration, each group was injected intraperitoneally with reserpine at a dose of 4 mg/kg. Next, akinesia, blepharoptosis and shell temperature were observed.
# I Akinesia: one hour after intraperitoneal injection of reserpine, the mice were placed at the center of a circle with a diameter of 7.5 cm for a 15-second observation to calculate the “out-of-circle” ratio.
# II Blepharoptosis: one hour after intraperitoneal injection of reserpine, the eye closure of mice was observed and scored by the following standard: eyelids open, 0; eyelids ¼ closed, 1; eyelids 2/4 closed, 2; eyelids ¾ closed, 3; eyelids closed completely, 4.
# III Shell temperature: two hours after intraperitoneal injection of reserpine, the shell temperature of the abdomen of the mice was measured.
# 120 C57BL/6 mice were randomly selected to observe the number of their autonomic activity. The method was the same with that of Experiment 1. 100 mice with the number of autonomic activity between 70˜140 were screened out, divided randomly into 10 groups, and intragastrically administrated with the drug compounds at a dose listed in Table 4, one time daily for 7 days consecutively. The mice in the normal group and the solvent control group were administrated with 2% Tween-80 aqueous solution in the same volume. Except the normal control group, 30 min after the last administration, each group was injected intraperitoneally with reserpine at a dose of 4 mg/kg. Next, akinesia, blepharoptosis and shell temperature were observed. Observation method was the same with that of Experiment 1.
# [3] = Experiment 1, end of 1st min to 4th min
# [4] = Experiment 1, 10 mg/kg intragastric 7 days, reserpine 4 mg/kg i.p., abdomen, two hours after reserpine, ±SD
# [5] = Experiment 1, 10 mg/kg intragastric 7 days, reserpine 4 mg/kg i.p., ±SD
# [6] = Experiment 1, 10 mg/kg intragastric 7 days, reserpine 4 mg/kg i.p.
Compound,"Number of Autonomic activity (time) [1, 3] [time]","Blepharoptosis, “out-of-circle” ratio and shell temperature after reserpine (effect in words) ([2]; 10 mg/kg intragastric 7 days)","Degree of eye closure / blepharoptosis after reserpine compared with I-1 (in words) ([2]; 10 mg/kg, compared with I-1)",“out-of-circle” ratio after reserpine compared with I-1 (in words) ([2]; 10 mg/kg),"Change in the shell temperature (ΔT ° C.) [2, 4] [°C]","Degree of eye-closure [2, 5]","responders at 10 mg/kg [2, 6] [%]",Number of Autonomic activity (time) ([1]; Experiment 2),"Change in the shell temperature (T ° C.) ([2]; Experiment 2, 10 mg/kg intragastric 7 days, reserpine 4 mg/kg i.p., abdomen, two hours after reserpine, ±SD) [°C]","Degree of eye-closure ([2]; Experiment 2, 10 mg/kg intragastric 7 days, reserpine 4 mg/kg i.p., ±SD)","responders at 10 mg/kg ([2]; Experiment 2, 10 mg/kg intragastric 7 days, reserpine 4 mg/kg i.p.) [%]"
"CC(C)CNC(=O)/C=C/c1cc(I)c2c(c1)OCO2 [Compound I-3, N-isobutyl-5′-iodo-3′,4′-methylenedioxy cinnamamide]",94.42 ± 23.97,improved significantly,reduced,increased markedly,1.72 ± 0.26,1.00 ± 1.13**^ΔΔ,92,,,,
"CN(C)C(=O)/C=C/c1cc2c(c(C(F)(F)F)c1)OCO2 [Compound I-8, N,N-dimethyl-5′-trifluoromethyl-3′,4′-methylenedioxy cinnamamide]",,"remarkably improve; also recorded: antagonizing the decrease of shell temperature, akinesia and improving the degree of eye closure",,,,,,84.00 ± 21.81,27.60 ± 0.88,2.30 ± 1.64,40
"COc1cc(/C=C/C=C/C(=O)NCC(C)C)cc2c1OCO2 [Compound I-6, N-isobutyl-5-(5′-methoxy-3′,4′-methylenedioxyphenyl)pentadienamide]",98.83 ± 17.56,improved significantly,,increased markedly,1.84 ± 0.22,2.08 ± 1.68,67,,,,
"CC(C)CNC(=O)/C=C/c1cc2c(c([N+](=O)[O-])c1)OCO2 [Compound I-2, N-isobutyl-5′-nitro-3′,4′-methylenedioxy cinnamamide]",102.00 ± 26.24,improved significantly,,increased markedly,1.60 ± 0.18,1.67 ± 1.30,83,,,,
